{"source": "patent US6761922B2", "about": "“Sweetener compositions containing aspartyl dipeptide ester compounds” (Ajinomoto Co., Inc., priority 1999, dated 2004)", "key": {"[1]": {"settings": "cited from earlier work; for sweetness intensity, times that of sucrose by weight: reported in prior publications"}, "[2]": {"assay": "Magnification of sweetness intensity stated or used for calculating the sweetness of compositions", "settings": "for magnification of sweetness intensity of the derivative as stated for the formulation: value used as basis of calculation, vs sucrose"}, "[3]": {"assay": "Time required to dissolve completely in 500 ml of water with stirring", "assay_type": "physicochemical", "settings": "0.0234 g of powder in 500 ml of water, 25° C., 200 rpm", "method": "When 50 g of the suspension of the derivative (derivative content 0.0234 g) were added to 500 ml of water (25° C.) with stirring (200 rpm), and the time required to dissolve completely was measured, it took 50 seconds. When 0.0234 g of the powder of the derivative 1, as a reference product, were added to 500 ml of water (25° C.) with stirring (200 rpm) in the same way, and the time required to dissolve completely was measured, it took not less than 3 minutes."}, "[4]": {"assay": "Measurement of the magnification of sweetness intensity in aqueous solution (sensory evaluation against sucrose solutions)", "assay_type": "in vivo", "settings": "for magnification of sweetness intensity, times that of sucrose: aqueous solution, PSE 10% concentration, 20 panelists", "method": "[Method for Determining the Magnification of Sweetness Intensity]\nAn aqueous solution was prepared by diluting derivative 2 to be PSE 10% concentration (15.5 mg/1000 ml=10/6500 g/100 ml), assuming that the intensity of sweetness of derivative 2 was 6500 times that of sucrose. Separately, aqueous sucrose solutions having sucrose concentrations of (a)6.94%, (b)8.33%, (c)10%, (d)12%, and (e)14.4% were prepared. The sensory evaluation was performed by determining which sucrose solution was closest to the solution of derivative 2 in the sweetness intensity. The result of calculation of the average of points of 20 panelists was 2.25 point.\n(§1) The sweetness intensity of the solution of derivative 2 was 8.75% according to the following equation: (10.0−8.33)×0.25+8.33=8.75. Therefore, the magnification of sweetness of derivative 2 was 5600 (=8.75/0.00155) times that of sucrose. According to the same experiment, the magnification of sweetness intensity of derivative 1 was 22600 times that of sucrose. Further, the magnification of sweetness intensity of other derivatives (3 to 9) can be determined in the same manner. And the magnification of sweetness intensity in a cola beverage can be also determined by the same method compared to the control solution of cola beverage containing 10% sucrose."}, "Solubility": {"assay": "Solubility", "assay_type": "physicochemical", "settings": "25° C."}, "[5]": {"assay": "Standing test of suspension at room temperature (precipitation)", "assay_type": "physicochemical", "settings": "1.0 weight part in 70 weight parts of water, homogenized, 7 days"}, "[6]": {"assay": "Sensory evaluation in coffee against 4% sucrose coffee, after production and after storage", "assay_type": "in vivo", "settings": "60 days at room temperature, judged from sweetness", "from_the_text": "And, the sweetener composition in the form of suspension was poured into the sealed container and stood still at room temperature for 60 days."}, "[7]": {"assay": "Measurement of the magnification of sweetness intensity in cola beverage (sensory evaluation against cola with sucrose)", "assay_type": "in vivo", "settings": "control cola beverage containing 10% sucrose", "from_the_text": "as §1\nIncidentally, the composition of cola beverage is as follows.\nIncidentally, as for the concentration of the references, the sucrose concentrations of previous (a) to (e) were used."}, "[8]": {"assay": "Rate of dissolving and dispersibility of granular products in water", "assay_type": "physicochemical", "settings": "crude powder in hot water; insoluble coagulates formed", "method": "*1: As for the rate of dissolving, the distilled water was poured in the 500 ml beaker, 1 g of sample was added to the beaker with gentle mixing by magnetic stirring, and the time of dissolving was measured."}, "[9]": {"settings": "value used as basis of calculation, vs sucrose; cited from earlier work"}}, "note": "Where two headings read alike, the source gives them in different places. Where a SMILES comes first, the peptide text is derived from it."}
{"smiles": "COC(=O)[C@H](Cc1ccccc1)NC(=O)[C@@H](N)CC(=O)O", "note": "[Aspartame] (H-Asp-Phe-OMe)", "values": [{"measurement": "Magnification of sweetness intensity (vs. sucrose)", "setting": "[1]; reference sweetener in Example 9", "result": 200}, {"measurement": "sweetness intensity, times that of sucrose by weight", "setting": "[1]", "result": 200, "unit": "times"}, {"measurement": "magnification of sweetness intensity at PSE 0.5%", "setting": "[2]; was calculated as", "result": 360, "unit": "times"}]}
{"smiles": "COC(=O)[C@H](Cc1ccccc1)NC(=O)[C@H](CC(=O)O)NCCCc1ccc(OC)c(O)c1", "note": "[Derivative 1, N-[N-[3-(3-hydroxy-4-methoxyphenyl)propyl]-L-α-aspartyl]-L-phenylalanine 1-methyl ester]", "values": [{"measurement": "time required to dissolve completely", "setting": "[3]", "result": "not less than 3 minutes"}, {"measurement": "magnification of sweetness intensity, times that of sucrose", "setting": "[4]", "result": 22600, "unit": "times"}, {"measurement": "Magnification of sweetness intensity relative to sucrose, in aqueous solution", "setting": "[4]", "result": 22600}, {"measurement": "solubility against isomerised sugar \"Fujikraft\"", "setting": "Solubility", "result": 0.035, "unit": "g/100 ml"}, {"measurement": "solubility in water", "setting": "Solubility", "result": 0.152, "unit": "g/100 ml"}, {"measurement": "precipitation on standing", "setting": "[5]", "result": "all suspended substances were precipitated"}, {"measurement": "stability of the derivative in the suspension", "setting": "[6]", "result": "not decomposed"}, {"measurement": "magnification of sweetness intensity at PSE 4%", "setting": "[2]; at PSE 4%, was calculated as", "result": 18500, "unit": "times"}, {"measurement": "magnification of sweetness intensity of the derivative as stated for the formulation", "setting": "[2]", "result": 22600, "unit": "times"}, {"measurement": "Magnification of sweetness intensity relative to sucrose, in cola beverage", "setting": "[7]", "result": 22600}]}
{"smiles": "COC(=O)[C@H](Cc1ccccc1)NC(=O)[C@H](CC(=O)O)NCCCc1ccc(OC)cc1", "note": "[Derivative 2, N-[N-[3-(4-methoxyphenyl)propyl]-L-α-aspartyl]-L-phenylalanine 1-methyl ester]", "values": [{"measurement": "time without reaching complete dissolution", "setting": "[8]", "result": "> 5", "unit": "min"}, {"measurement": "sweetness intensity of the solution (sucrose equivalent)", "setting": "[4]; 15.5 mg/1000 ml aqueous solution", "result": 8.75, "unit": "%"}, {"measurement": "magnification of sweetness intensity, times that of sucrose", "setting": "[4]", "result": 5600, "unit": "times"}, {"measurement": "Magnification of sweetness intensity relative to sucrose, in aqueous solution", "setting": "[4]", "result": 5500}, {"measurement": "solubility in water", "setting": "Solubility", "result": 0.009, "unit": "g/100 ml"}, {"measurement": "magnification of sweetness intensity of the derivative as stated for the formulation", "setting": "[2]", "result": 5000, "unit": "times"}, {"measurement": "Magnification of sweetness intensity (vs. sucrose)", "setting": "[2]; value used for Example 9 suspension", "result": 5000}, {"measurement": "Magnification of sweetness intensity relative to sucrose, in cola beverage", "setting": "[7]", "result": 4900}]}
{"smiles": "COC(=O)[C@H](Cc1ccccc1)NC(=O)[C@H](CC(=O)O)NCCC(C)(C)c1ccc(OC)c(O)c1", "note": "[Derivative 3, N-[N-[3-(3-hydroxy-4-methoxyphenyl)-3-methylbutyl]-L-α-aspartyl]-L-phenylalanine 1-methyl ester]", "values": [{"measurement": "Magnification of sweetness intensity relative to sucrose, in aqueous solution", "setting": "[4]", "result": 42400}, {"measurement": "Magnification of sweetness intensity relative to sucrose, in cola beverage", "setting": "[7]", "result": 37000}]}
{"smiles": "COC(=O)[C@H](Cc1ccccc1)NC(=O)[C@H](CC(=O)O)NCCC(C)(C)c1ccc(O)c(C)c1", "note": "[Derivative 4, N-[N-[3-(3-methyl-4-hydroxyphenyl)-3-methylbutyl]-L-α-aspartyl]-L-phenyl alanine 1-methyl ester]", "values": [{"measurement": "Magnification of sweetness intensity relative to sucrose, in aqueous solution", "setting": "[4]", "result": 43500}, {"measurement": "Magnification of sweetness intensity relative to sucrose, in cola beverage", "setting": "[7]", "result": 29600}]}
{"smiles": "COC(=O)[C@H](Cc1ccccc1)NC(=O)[C@H](CC(=O)O)NCCC(C)(C)c1ccc(OC)cc1", "note": "[Derivative 5, N-[N-[3-(4-methoxyphenyl)-3-methylbutyl]-L-α-aspartyl]-L-phenylalanine 1-methyl ester]", "values": [{"measurement": "Magnification of sweetness intensity relative to sucrose, in aqueous solution", "setting": "[4]", "result": 8400}, {"measurement": "Magnification of sweetness intensity relative to sucrose, in cola beverage", "setting": "[7]", "result": 8000}]}
{"smiles": "COC(=O)[C@H](Cc1ccccc1)NC(=O)[C@H](CC(=O)O)NCCC(C)(C)c1ccc(O)cc1", "note": "[Derivative 6, N-[N-[3-(4-hydroxyphenyl)-3-methylbutyl]-L-α-aspartyl]-L-phenylalanine 1-methyl ester]", "values": [{"measurement": "Magnification of sweetness intensity relative to sucrose, in aqueous solution", "setting": "[4]", "result": 14900}, {"measurement": "magnification of sweetness intensity of the derivative as stated for the formulation", "setting": "[2]", "result": 14000, "unit": "times"}, {"measurement": "Magnification of sweetness intensity relative to sucrose, in cola beverage", "setting": "[7]", "result": 14000}]}
{"smiles": "COC(=O)[C@H](Cc1ccccc1)NC(=O)[C@H](CC(=O)O)NCCCc1ccc(OC)cc1O", "note": "[Derivative 7, N-[N-[3-(2-hydroxy-4-methoxyphenyl)propyl]-L-α-aspartyl]-L-phenylalanine 1-methyl ester]", "values": [{"measurement": "Magnification of sweetness intensity relative to sucrose, in aqueous solution", "setting": "[4]", "result": 11100}, {"measurement": "Magnification of sweetness intensity relative to sucrose, in cola beverage", "setting": "[7]", "result": 10600}]}
{"smiles": "COC(=O)[C@H](Cc1ccccc1)NC(=O)[C@H](CC(=O)O)NCCCc1ccc(O)c(C)c1", "note": "[Derivative 8, N-[N-[3-(3-methyl-4-hydroxyphenyl)propyl]-L-α-aspartyl]-L-phenylalanine 1-methyl ester]", "values": [{"measurement": "Magnification of sweetness intensity relative to sucrose, in aqueous solution", "setting": "[4]", "result": 18200}, {"measurement": "Magnification of sweetness intensity relative to sucrose, in cola beverage", "setting": "[7]", "result": 15800}]}
{"smiles": "COC(=O)[C@H](Cc1ccccc1)NC(=O)[C@H](CC(=O)O)NCCCc1ccc(O)cc1O", "note": "[Derivative 9, N-[N-[3-(2,4-dihydroxyphenyl)propyl]-L-α-aspartyl]-L-phenylalanine 1-methyl ester]", "values": [{"measurement": "Magnification of sweetness intensity relative to sucrose, in aqueous solution", "setting": "[4]", "result": 8000}, {"measurement": "Magnification of sweetness intensity relative to sucrose, in cola beverage", "setting": "[7]", "result": 7500}]}
{"smiles": "OC[C@@H](O)[C@@H](O)CO", "note": "[Erythritol]", "values": [{"measurement": "magnification of sweetness intensity at PSE 0.5%", "setting": "[2]; was calculated as", "result": 0.75, "unit": "times"}]}
{"smiles": "COC(=O)[C@H](Cc1ccccc1)NC(=O)[C@H](CC(=O)O)NCCC(C)(C)C", "note": "[Neotame]", "values": [{"measurement": "sweetness intensity, times that of sucrose by weight", "setting": "[1]", "result": 10000, "unit": "times"}]}
{"smiles": "OC[C@H]1O[C@@H](O[C@H]2[C@H](O)[C@@H](O)C(O)O[C@@H]2CO)[C@H](O)[C@@H](O)[C@H]1O", "note": "(stereo partly shown) [lactose]", "values": [{"measurement": "magnification of sweetness intensity of filler used for calculation", "setting": "[9]", "result": 0.2}]}
{"smiles": "OC[C@@H](O)[C@@H](O[C@H]1O[C@H](CO)[C@@H](O)[C@H](O)[C@H]1O)[C@H](O)[C@@H](O)CO", "note": "[maltitole]", "values": [{"measurement": "magnification of sweetness intensity of filler used for calculation", "setting": "[9]", "result": 0.75}]}
